According to ChEMBL document CHEMBL2074542, “Differential recognition of beta -lactam antibiotics by intestinal and renal peptide transporters, PEPT 1 and PEPT 2” (J Biol Chem, 1995):
Values belong to the molecule of their own block, whether it stands above or below them. Peptide text beside a SMILES is read from it.

Columns and labels:
[1] = target: T1, Solute carrier family 15 member 2 (Homo sapiens, UniProt Q16348); assay: TP_TRANSPORTER: inhibition of Cephalexin uptake in SKPT cells; assay type: functional, cell-based
T1 sequence (Q16348 whole entry): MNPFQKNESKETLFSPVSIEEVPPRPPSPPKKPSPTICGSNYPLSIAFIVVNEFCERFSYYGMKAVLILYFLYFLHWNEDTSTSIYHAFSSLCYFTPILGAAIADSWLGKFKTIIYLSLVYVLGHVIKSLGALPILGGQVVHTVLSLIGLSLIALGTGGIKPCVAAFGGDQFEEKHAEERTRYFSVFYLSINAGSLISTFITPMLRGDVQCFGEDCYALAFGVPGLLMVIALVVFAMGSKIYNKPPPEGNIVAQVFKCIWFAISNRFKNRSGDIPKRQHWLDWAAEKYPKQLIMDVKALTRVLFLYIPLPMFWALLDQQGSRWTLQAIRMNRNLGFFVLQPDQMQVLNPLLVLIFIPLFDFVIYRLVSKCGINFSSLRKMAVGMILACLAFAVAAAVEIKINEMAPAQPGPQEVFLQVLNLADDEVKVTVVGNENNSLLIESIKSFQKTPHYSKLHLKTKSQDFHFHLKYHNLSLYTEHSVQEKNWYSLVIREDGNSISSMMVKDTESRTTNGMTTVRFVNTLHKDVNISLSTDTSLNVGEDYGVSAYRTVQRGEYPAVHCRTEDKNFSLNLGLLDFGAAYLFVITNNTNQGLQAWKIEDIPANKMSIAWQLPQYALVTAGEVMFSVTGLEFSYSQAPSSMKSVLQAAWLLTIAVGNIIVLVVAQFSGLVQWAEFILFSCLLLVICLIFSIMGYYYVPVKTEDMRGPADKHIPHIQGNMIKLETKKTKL

[2] = target: T2, Solute carrier family 15 member 2 (Homo sapiens) (UniProt Q16348); assay: TP_TRANSPORTER: uptake in PEPT2-expressing HeLa cells; assay type: functional, cell-based
T2 sequence (whole entry): T1 sequence (Q16348 whole entry)

[3] = target: T1, Solute carrier family 15 member 2; assay: TP_TRANSPORTER: inhibition of Gly-Sar uptake in SKPT cells; assay type: functional, cell-based
[4] = target: T3, Solute carrier family 15 member 1 (Homo sapiens, UniProt P46059)
T3 sequence (P46059 whole entry): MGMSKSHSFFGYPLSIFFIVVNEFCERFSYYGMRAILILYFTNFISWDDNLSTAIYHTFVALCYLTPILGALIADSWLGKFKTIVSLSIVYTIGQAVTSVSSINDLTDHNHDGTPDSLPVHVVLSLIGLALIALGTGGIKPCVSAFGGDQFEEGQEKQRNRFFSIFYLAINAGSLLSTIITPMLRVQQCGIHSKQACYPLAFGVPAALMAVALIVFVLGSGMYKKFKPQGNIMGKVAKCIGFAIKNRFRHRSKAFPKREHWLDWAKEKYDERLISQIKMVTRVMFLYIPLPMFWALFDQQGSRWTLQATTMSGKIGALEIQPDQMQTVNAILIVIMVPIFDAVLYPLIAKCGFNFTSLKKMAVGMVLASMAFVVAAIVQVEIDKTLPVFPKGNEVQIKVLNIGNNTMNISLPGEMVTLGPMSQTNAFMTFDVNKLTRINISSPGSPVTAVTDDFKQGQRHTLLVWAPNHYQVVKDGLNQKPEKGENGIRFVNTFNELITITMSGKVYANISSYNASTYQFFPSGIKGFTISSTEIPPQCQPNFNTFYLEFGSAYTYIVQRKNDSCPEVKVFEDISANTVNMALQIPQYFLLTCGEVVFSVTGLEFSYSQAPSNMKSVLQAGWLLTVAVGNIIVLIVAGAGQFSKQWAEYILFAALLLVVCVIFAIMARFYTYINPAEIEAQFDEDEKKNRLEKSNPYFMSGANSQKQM
Description: TP_TRANSPORTER: inhibition of Gly-Sar uptake (Gly-Sar: 25 uM) in PEPT1-expressing HeLa cells

[5] = target: T1, Solute carrier family 15 member 2; assay: TP_TRANSPORTER: inhibition of Gly-Sar uptake (Gly-Sar: 50 uM) in PEPT2-expressing HeLa cells; assay type: functional, cell-based
[6] = target: T3, Solute carrier family 15 member 1; assay: TP_TRANSPORTER: inhibition of Gly-Sar uptake (Gly-Sar: 5 uM) in Caco-2 cells; assay type: functional, cell-based
[7] = substrate: CC1=C(C(=O)O)N2C(=O)[C@@H](NC(=O)[C@H](N)c3ccccc3)[C@H]2SC1; assay: TP_TRANSPORTER: uptake in SKPT cells; assay type: functional, cell-based

- Ki [1]: 64 µM
Molecule: CN(CC(=O)O)C(=O)CN [GLYCYLSARCOSINE] (HELM PEPTIDE1{G.[Sar]}$$$$V2.0)

- Activity [2]: substrate [+]
- Ki [3]: 68.2 µM
Molecule: CC1=C(C(=O)O)N2C(=O)[C@@H](NC(=O)[C@H](N)c3ccccc3)[C@H]2SC1 [CEPHALEXIN ANHYDROUS]

- IC50 [4]: 350 µM
- IC50 [5]: 610 µM
- Ki [3]: 39.1 µM
- IC50 [6]: 600 µM
Molecule: CC1(C)S[C@@H]2[C@H](NC(=O)C3(N)CCCCC3)C(=O)N2[C@H]1C(=O)O [CYCLACILLIN]

- IC50 [4]: 870 µM
- IC50 [5]: 66 µM
- Ki [3]: 2.8 µM
- IC50 [6]: 5400 µM
Molecule: CC1=C(C(=O)O)N2C(=O)[C@@H](NC(=O)[C@H](N)c3ccc(O)cc3)[C@H]2SC1 [CEFADROXIL]

B1: Solute carrier family 15 member 2 (Rattus norvegicus), Q63424 (protein)
chain: MNPFQKNESKETLFSPVSTEEMLPRPPSPPKKSPPKIFGSSYPVSIAFIVVNEFCERFSYYGMKAVLTLYFLYFLHWNEDTSTSVYHAFSSLCYFTPILGAAIADSWLGKFKTIIYLSLVYVLGHVFKSLGAIPILGGKMLHTILSLVGLSLIALGTGGIKPCVAAFGGDQFEEEHAEARTRYFSVFYLAINAGSLISTFITPMLRGDVKCFGQDCYALAFGVPGLLMVLALVVFAMGSKMYRKPPPEGNIVAQVIKCIWFALCNRFRNRSGDLPKRQHWLDWAAEKYPKHLIADVKALTRVLFLYIPLPMFWALLDQQGSRWTLQANKMNGDLGFFVLQPDQMQVLNPFLVLIFIPLFDLVIYRLISKCRINFSSLRKMAVGMILACLAFAVAALVETKINGMIHPQPASQEIFLQVLNLADGDVKVTVLGSRNNSLLVESVSSFQNTTHYSKLHLEAKSQDLHFHLKYNSLSVHNDHSVEEKNCYQLLIHQDGESISSMLVKDTGIKPANGMAAIRFINTLHKDLNISLDTDAPLSVGKDYGVSAYRTVLRGKYPAVHCETEDKVFSLDLGQLDFGTTYLFVITNITSQGLQAWKAEDIPVNKLSIAWQLPQYVLVTAAEVMFSVTGLEFSYSQAPSSMKSVLQAAWLLTVAVGNIIVLVVAQFSGLAQWAEFVLFSCLLLVVCLIFSVMAYYYVPLKSEDTREATDKQIPAVQGNMINLETKNTRL
- Km [7]: 49 µM
